{"source": "patent US20110237500A1", "about": "“CECROPIN-MAGAININ HYBRID PEPTIDES” (priority 2008, published 2011)", "assay_type_in_all_cases": "cell-based", "key": {"B. thailandensis E264": {"test_system": "B. thailandensis E264", "parameters": "key: —: No effect (i.e. no significant difference between control [culture with no peptide] and culture with peptide); *: ~1 log effect (i.e. culture with peptide that's growth was ~1 log less than control); **: 1-2 log effect; ***: 2-4 log effect; ****: >4 log effect; “”: “Immediate effect” (i.e. loss of growth by at least 1 log compared to control immediately on addition of peptide [T = 0])"}, "[1]": {"test_system": "Y. pseudotuberculosis IP32593", "parameters": "key: —: No effect (i.e. no significant difference between control [culture with no peptide] and culture with peptide); *: ~1 log effect (i.e. culture with peptide that's growth was ~1 log less than control); **: 1-2 log effect; ***: 2-4 log effect; ****: >4 log effect; “”: “Immediate effect” (i.e. loss of growth by at least 1 log compared to control immediately on addition of peptide [T = 0])"}, "F. novicida U112": {"test_system": "F. novicida U112", "parameters": "key: —: No effect (i.e. no significant difference between control [culture with no peptide] and culture with peptide); *: ~1 log effect (i.e. culture with peptide that's growth was ~1 log less than control); **: 1-2 log effect; ***: 2-4 log effect; ****: >4 log effect; “”: “Immediate effect” (i.e. loss of growth by at least 1 log compared to control immediately on addition of peptide [T = 0])"}, "F. tularensis LVS": {"test_system": "F. tularensis LVS", "parameters": "key: —: No effect (i.e. no significant difference between control [culture with no peptide] and culture with peptide); *: ~1 log effect (i.e. culture with peptide that's growth was ~1 log less than control); **: 1-2 log effect; ***: 2-4 log effect; ****: >4 log effect; “”: “Immediate effect” (i.e. loss of growth by at least 1 log compared to control immediately on addition of peptide [T = 0])"}, "S. aureus ATCC29213": {"test_system": "S. aureus ATCC29213", "experiment": "Viable count (CFU/ml) time-kill assay of peptides with bacteria", "details": "102 μg/ml peptide, 37° C., growth versus PBS control"}}}
{"sequence": "GIGKFLHSAKKFGKAFVGEIMNS [Magainin II]", "values": [{"measurement": "Effect of peptides after 4 hours incubation with bacteria: B. thailandensis E264", "setting": "B. thailandensis E264", "value": "—"}, {"measurement": "Effect of peptides after 4 hours incubation with bacteria: Y. pseudotuberculosis IP32593", "setting": "[1]", "value": "—"}, {"measurement": "Effect of peptides after 4 hours incubation with bacteria: F. novicida U112", "setting": "F. novicida U112", "value": "—"}, {"measurement": "Effect of peptides after 4 hours incubation with bacteria: F. tularensis LVS", "setting": "F. tularensis LVS", "value": "—"}, {"measurement": "Effect of peptides after 4 hours incubation with bacteria: S. aureus ATCC29213", "setting": "S. aureus ATCC29213", "value": "**** (>4 log effect)"}]}
